Publication PMC5520929, “Bilirubin neurotoxicity is associated with proteasome inhibition” (Cell Death & Disease, 2017)

Target: T1, 20S proteasome chymotrypsin-like (CT-like) peptidase (Homo sapiens, UniProt P28074)
T1 construct: gene PSMB5; purified human 20S proteasomes; with 20S proteasome
T1 sequence (P28074 60-263): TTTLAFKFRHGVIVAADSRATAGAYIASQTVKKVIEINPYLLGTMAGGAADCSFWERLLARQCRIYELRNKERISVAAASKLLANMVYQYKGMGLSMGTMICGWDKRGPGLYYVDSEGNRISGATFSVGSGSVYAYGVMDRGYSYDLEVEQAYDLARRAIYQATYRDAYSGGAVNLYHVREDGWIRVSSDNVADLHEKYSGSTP
Test: fluorogenic Suc-LLVY-AMC peptidase assay on purified human
Type: biochemical

IC50: ~20 µM
Compound: C=CC1=C(C)/C(=C/c2[nH]c(Cc3[nH]c(/C=C4\NC(=O)C(C)=C4C=C)c(C)c3CCC(=O)O)c(CCC(=O)O)c2C)NC1=O [Bil, bilirubin]
